Measured values: ChEMBL document CHEMBL5042538 (J Med Chem, 2022)
pIC50, pKi: −log10 of the molar value.

Tests used:
CYP3A [1] = experiment: (§1) Ratio of IC50 for time dependent inhibition of CYP3A in human liver microsomes incubated for 30 mins by LC-MS/MS analysis to IC50 for time dependent inhibition of CYP3A in human liver microsomes using midazolam as substrate preincubated for 30 mins in presence of NADPH-generating system followed by substrate addition further incubated for 30 mins by LC-MS/MS analysis; conditions: probe midazolam, read-out: Ratio IC50
[2] = Time dependent inhibition of CYP3A in human liver microsomes using midazolam as substrate preincubated for 30 mins in presence of NADPH generating system followed by substrate addition incubated for 30 mins by LC-MS/MS analysi; assay type: ADME
[3] = Time dependent inhibition of CYP3A in human liver microsomes incubated for 30 mins in presence of NADPH generating system by LC-MS/MS analysis; assay type: ADME
[4] = Inactivation of CYP3A in human liver microsomes at 0.25 uM using midazolam as substrate in presence of NADPH generating system and catalase; assay type: ADME
Cytochrome P450 3A5 [5] = target: T1, Cytochrome P450 3A5 (Homo sapiens, UniProt P20815); experiment: Time dependent inhibition of recombinant human CYP3A5 using midazolam as substrate preincubated for 30 mins in presence of NADPH generating system followed by substrate addition incubated for 30 mins by LC-MS/MS analysis; assay type: ADME
[6] = Inactivation of CYP3A in human liver microsomes at 0.25 uM using midazolam as substrate in presence of NADPH generating system and mannitol; assay type: ADME
CYP3A [7] = experiment: Inhibition of CYP3A in human liver microsomes at 1 uM using midazolam as substrate incubated for 10 mins relative to control; assay type: ADME; conditions: probe midazolam
CYP3A4 [8] = target: T2, CYP3A4 (Homo sapiens, UniProt P08684); experiment: Inactivation of CYP3A4 in human liver microsomes assessed as inactivation constant using midazolam as substrate preincubated for 5 mins followed by beta-NADP addition for 15 mins and midazolam addition after 10 mins in presence of NADPH-generating system by LC-MS/MS analysis; assay type: ADME; conditions: probe midazolam, time 30 min
[9] = Inhibition of CYP3A in human liver microsomes at 2.5 uM using de-oxyschizandrin as substrate at 10 to 20 fold excess concentration preincubated for 5 mins followed by beta-NADP addition and measured upto 12 mins; assay type: ADME; conditions: 0.2 h, time <=17 min
Cytochrome P450 3A4 [10] = target: T3, Cytochrome P450 3A4 (Homo sapiens, UniProt P08684); experiment: Drug metabolism assessed as human CYP3A4-mediated M2 metabolite formation at 7.80 mins in presence of NADPH generating system by LC-MS/MS analysis; assay type: ADME; conditions: recombinant enzyme, 0.13 h, time 7.8 min
Cytochrome P450 3A4 [11] = target: T3, Cytochrome P450 3A4; experiment: Drug metabolism assessed as human CYP3A4-mediated M1 metabolite formation at 7.32 mins in presence of NADPH generating system by LC-MS/MS analysis; assay type: ADME; conditions: recombinant enzyme, 0.122 h
Cytochrome P450 3A4 [12] = target: T3, Cytochrome P450 3A4; experiment: Time dependent inhibition of recombinant human CYP3A4 incubated for 30 mins in presence of NADPH generating system by LC-MS/MS analysis; assay type: ADME
CYP3A4 [13] = target: T2, CYP3A4; experiment: Time dependent inhibition of recombinant human CYP3A4 assessed as enzyme remaining activity at 2.5 uM using midazolam as substrate preincubated for 30 mins in presence of NADPH-generating system relative to control; assay type: ADME; conditions: recombinant human CYP3A4, probe midazolam, read-out: TDI
CYP3A4 [14] = target: T2, CYP3A4; experiment: Time dependent inhibition of CYP3A4 in human liver microsomes assessed as enzyme remaining activity at 2.5 uM using midazolam as substrate preincubated for 30 mins in presence of NADPH-generating system relative to control; assay type: ADME; conditions: probe midazolam, read-out: TDI
CYP3A4 [15] = experiment: Time dependent inhibition of CYP3A4 in human liver microsomes assessed as enzyme remaining activity at 2.5 uM using midazolam as substrate incubated for 30 mins relative to control; assay type: ADME; conditions: probe midazolam, read-out: TDI
[16] = Inactivation of CYP3A in human liver microsomes at 0.25 uM using midazolam as substrate in presence of NADPH generating system and ferric cyanide; assay type: ADME
Cytochrome P450 3A4 [17] = target: T3, Cytochrome P450 3A4; experiment: Inactivation of recombinant human CYP3A4 assessed as partition ratio in presence of NADPH-generating system; assay type: ADME; conditions: recombinant enzyme
CYP3A7 = CYP3A7 (Homo sapiens, UniProt P24462); experiment: as §1, with “recombinant” for “CYP3A in”, “CYP3A7” for “liver microsomes”; conditions: recombinant human CYP3A7, probe midazolam, read-out: Ratio IC50
[18] = Inhibition of CYP3A in human liver microsomes at 2.5 uM using Nifedipine as substrate at 10 to 20 fold excess concentration preincubated for 5 mins followed by beta-NADP addition and measured upto 12 mins; assay type: ADME; conditions: 0.2 h, time <=17 min
Cytochrome P450 3A4 [19] = target: T3, Cytochrome P450 3A4; experiment: Inactivation of CYP3A4 in human liver microsomes assessed as inhibition constant using midazolam as substrate preincubated for 5 mins followed by beta-NADP addition for 15 mins and midazolam addition after 10 mins in presence of NADPH-generating system by LC-MS/MS analysis; assay type: ADME
Cytochrome P450 3A5 [20] = target: T1, Cytochrome P450 3A5; experiment: Time dependent inhibition of recombinant human CYP3A5 incubated for 30 mins in presence of NADPH generating system by LC-MS/MS analysis; assay type: ADME
Cytochrome P450 3A7 [21] = target: T4, Cytochrome P450 3A7 (Homo sapiens, UniProt P24462); experiment: Time dependent inhibition of recombinant human CYP3A7 incubated for 30 mins in presence of NADPH generating system by LC-MS/MS analysis; assay type: ADME
CYP3A [22] = experiment: Inactivation of CYP3A in human liver microsomes using midazolam as substrate assessed as enzyme remaining activity in presence of glutathione; assay type: ADME; conditions: probe midazolam, read-out: INH
[23] = Drug metabolism assessed as human CYP2D6-mediated M2 metabolite formation at 7.80 mins in presence of NADPH generating system by LC-MS/MS analysis; assay type: ADME; conditions: recombinant enzyme, 0.13 h, time 7.8 min
[24] = Time dependent inhibition of human CYP3A in human liver microsomes using midazolam as substrate preincubated for 30 mins in presence of NADPH-generating system followed by substrate addition incubated for 10 mins by LC-MS/MS analysis; assay type: ADME
[25] = Drug metabolism assessed as human CYP2D6-mediated M1 metabolite formation at 7.32 mins in presence of NADPH generating system by LC-MS/MS analysis; assay type: ADME; conditions: recombinant enzyme, 0.122 h
Cytochrome P450 3A4 [26] = target: T3, Cytochrome P450 3A4; experiment: Inactivation of recombinant human CYP3A4 assessed as inhibition constant using midazolam as substrate preincubated for 5 mins followed by beta-NADP addition for 15 mins and midazolam addition after 10 mins in presence of NADPH-generating system by LC-MS/MS analysis; assay type: ADME
CYP3A4 [27] = target: T2, CYP3A4; experiment: as §1, with “recombinant” for “CYP3A in”, “CYP3A4” for “liver microsomes”; conditions: recombinant human CYP3A4, probe midazolam, read-out: Ratio IC50
Cytochrome P450 3A4 [28] = target: T3, Cytochrome P450 3A4; experiment: Time dependent inhibition of recombinant human CYP3A4 using midazolam as substrate preincubated for 30 mins in presence of NADPH generating system followed by substrate addition incubated for 30 mins by LC-MS/MS analysi; assay type: ADME
Cytochrome P450 3A7 [29] = target: T4, Cytochrome P450 3A7; experiment: Time dependent inhibition of recombinant human CYP3A7 using midazolam as substrate preincubated for 30 mins in presence of NADPH generating system followed by substrate addition incubated for 30 mins by LC-MS/MS analysi; assay type: ADME
CYP3A5 = CYP3A5 (Homo sapiens, UniProt P20815); experiment: as §1, with “recombinant” for “CYP3A in”, “CYP3A5” for “liver microsomes”; conditions: recombinant human CYP3A5, probe midazolam, read-out: Ratio IC50
CYP3A4 [30] = target: T2, CYP3A4; experiment: Time dependent inhibition of recombinant human CYP3A4 assessed as enzyme remaining activity at 2.5 uM using midazolam as substrate incubated for 30 mins relative to control; assay type: ADME; conditions: recombinant human CYP3A4, probe midazolam, read-out: TDI
CYP3A4 [31] = target: T2, CYP3A4; experiment: Inactivation of recombinant human CYP3A4 at 0.1 uM for 10 mins relative to control; assay type: ADME
[32] = Inactivation of CYP3A in human liver microsomes at 0.25 uM using midazolam as substrate in presence of NADPH generating system and super oxide dismutase; assay type: ADME
CYP3A4 [33] = target: T2, CYP3A4; experiment: Inactivation of recombinant human CYP3A4 assessed as inactivation constant using midazolam as substrate preincubated for 5 mins followed by beta-NADP addition for 15 mins and midazolam addition after 10 mins in presence of NADPH-generating system by LC-MS/MS analysis; assay type: ADME; conditions: recombinant human CYP3A4, probe midazolam, time 30 min
CYP3A [34] = experiment: Time dependent inhibition of CYP3A in human liver microsomes assessed as enzyme remaining activity at 10 uM using N-ethyl-1,8-naphthalimide as substrate preincubated for 30 mins in presence of NADPH generating system followed by substrate addition and incubated for 10 mins by microplate reader analysis relative to control; assay type: ADME; conditions: probe N-ethyl-1,8-naphthalimide, time 40 min, read-out: TDI
CYP3A [35] = experiment: Inhibition of CYP3A in human liver microsomes at 10 uM using midazolam as substrate incubated for 10 mins relative to control; assay type: ADME; conditions: probe midazolam

T2 sequence (P08684 whole entry): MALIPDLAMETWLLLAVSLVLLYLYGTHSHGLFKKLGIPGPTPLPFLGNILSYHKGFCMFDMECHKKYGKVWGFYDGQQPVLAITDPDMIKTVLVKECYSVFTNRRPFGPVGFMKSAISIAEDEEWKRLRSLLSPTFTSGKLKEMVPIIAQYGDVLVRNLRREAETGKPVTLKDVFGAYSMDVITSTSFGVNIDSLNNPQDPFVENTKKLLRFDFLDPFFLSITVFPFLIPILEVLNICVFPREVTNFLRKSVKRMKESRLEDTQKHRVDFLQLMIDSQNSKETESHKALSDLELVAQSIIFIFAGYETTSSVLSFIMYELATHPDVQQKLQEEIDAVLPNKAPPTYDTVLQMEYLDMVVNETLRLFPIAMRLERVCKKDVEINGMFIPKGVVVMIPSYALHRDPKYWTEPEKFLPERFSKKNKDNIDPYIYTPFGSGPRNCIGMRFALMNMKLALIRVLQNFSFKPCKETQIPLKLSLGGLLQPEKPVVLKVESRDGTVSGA
T3 sequence (P08684 whole entry): as above
T4 sequence (P24462 whole entry): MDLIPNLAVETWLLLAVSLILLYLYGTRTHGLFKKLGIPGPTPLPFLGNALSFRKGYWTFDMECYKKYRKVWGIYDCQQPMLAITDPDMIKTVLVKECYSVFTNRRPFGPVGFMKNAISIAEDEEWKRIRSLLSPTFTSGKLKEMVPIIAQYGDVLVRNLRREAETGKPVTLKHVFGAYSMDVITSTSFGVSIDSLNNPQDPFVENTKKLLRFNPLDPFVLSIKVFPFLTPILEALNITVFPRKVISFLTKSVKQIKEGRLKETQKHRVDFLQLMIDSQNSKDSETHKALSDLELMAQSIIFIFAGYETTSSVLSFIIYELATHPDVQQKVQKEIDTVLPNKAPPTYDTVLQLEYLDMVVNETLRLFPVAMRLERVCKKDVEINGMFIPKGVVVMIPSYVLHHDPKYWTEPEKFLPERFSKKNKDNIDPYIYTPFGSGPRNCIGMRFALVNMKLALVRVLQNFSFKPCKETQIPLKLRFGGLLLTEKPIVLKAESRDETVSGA
T1 sequence (P20815 whole entry): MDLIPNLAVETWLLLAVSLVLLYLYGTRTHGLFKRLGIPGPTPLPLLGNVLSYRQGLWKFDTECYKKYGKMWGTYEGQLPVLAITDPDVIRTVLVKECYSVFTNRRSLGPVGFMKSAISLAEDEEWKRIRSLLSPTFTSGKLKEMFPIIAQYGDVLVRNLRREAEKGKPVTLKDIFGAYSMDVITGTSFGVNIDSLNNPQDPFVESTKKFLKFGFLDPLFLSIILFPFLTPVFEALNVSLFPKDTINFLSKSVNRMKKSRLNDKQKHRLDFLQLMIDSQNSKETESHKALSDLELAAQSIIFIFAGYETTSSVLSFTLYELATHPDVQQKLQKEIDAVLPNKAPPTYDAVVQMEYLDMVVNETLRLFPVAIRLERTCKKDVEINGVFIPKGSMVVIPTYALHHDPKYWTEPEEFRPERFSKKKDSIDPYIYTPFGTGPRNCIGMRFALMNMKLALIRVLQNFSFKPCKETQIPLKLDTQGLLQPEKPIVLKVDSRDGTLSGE
Sequence of CYP3A7 (P24462 whole entry): as the sequence (P24462 whole entry) above
Sequence of CYP3A5 (P20815 whole entry): as the sequence (P20815 whole entry) above

In the case of `C[C@]12CCC(=O)C[C@H]1CC[C@@H]1[C@@H]2CC[C@]2(C)[C@@H](c3ccc(=O)oc3)C[C@H]3O[C@]132`, the IC50 shift at 0.5 h (CYP3A [1]) was 11.4, the pIC50 [2] was 6.28 and the pIC50 [3] was 5.23.
`CC(=O)O[C@H]1[C@H]2O[C@]23[C@@H]2CC[C@@H]4CC(=O)CC[C@]4(C)[C@H]2CC[C@]3(C)[C@H]1c1ccc(=O)oc1` gave an IC50 shift at 0.5 h (CYP3A [1]) of 24.8, a pIC50 [2] of 6.27 and a pIC50 [3] of 4.87.
In the case of `C[C@]12CCC(=O)C[C@H]1CC[C@@H]1[C@@H]2CC[C@]2(C)[C@@H](c3ccc(=O)oc3)CC[C@]12O`, the “inhibition (INH)” value [4] was “Active”, the pIC50 (Cytochrome P450 3A5 [5]) was 5.63 and the “inhibition (INH)” value [6] was “Active”. For the same molecule, the inhibition at 10 min, 1 µM (CYP3A [7]) was 49%, the kinact (CYP3A4 [8]) was 0.00107 s⁻¹ and the “inhibition (INH)” value [9] was “Not Active”. For the same molecule, the Drug metabolism (Cytochrome P450 3A4 [10]) was “Metabolite_Detected”, the Drug metabolism (Cytochrome P450 3A4 [11]) was “Metabolite_Detected” and the pIC50 (Cytochrome P450 3A4 [12]) was 5.81. The activity at 30 min, 2.5 µM (CYP3A4 [13]) was 11.9%, the activity at 30 min, 2.5 µM (CYP3A4 [14]) was 19.7% and the activity at 0.5 h, 2.5 µM (CYP3A4 [15]) was 72.5%. The “inhibition (INH)” value [16] was “Active”, the IC50 shift at 0.5 h (CYP3A [1]) was 12.3 and the Ratio (Cytochrome P450 3A4 [17]) was 0.75. The IC50 shift at 0.5 h (CYP3A7) was 17.5, the “inhibition (INH)” value [18] was “Not Active” and the pKi (Cytochrome P450 3A4 [19]) was 6.18. The pIC50 (Cytochrome P450 3A5 [20]) was 5.26, the pIC50 (Cytochrome P450 3A7 [21]) was 4.96 and the activity (CYP3A [22]) was 43.8%. For the same molecule, the Drug metabolism [23] was “Metabolite_Detected”, the pIC50 [24] was 7.52 and the Drug metabolism [25] was “Metabolite_Detected”. It also gave a pKi (Cytochrome P450 3A4 [26]) of 6.60, an IC50 shift at 0.5 h (CYP3A4 [27]) of 17.3 and a pIC50 [2] of 6.35. The pIC50 (Cytochrome P450 3A4 [28]) was 7.05, the pIC50 (Cytochrome P450 3A7 [29]) was 4.19 and the IC50 shift at 0.5 h (CYP3A5) was 5.87. For the same molecule, the activity at 0.5 h, 2.5 µM (CYP3A4 [30]) was 81.2%, the inhibition at 10 min, 0.1 µM (CYP3A4 [31]) was 50% and the pIC50 [3] was 6.43. For the same molecule, the “inhibition (INH)” value [32] was “Active” and the kinact (CYP3A4 [33]) was 0.00268 s⁻¹.
`C[C@]12CC[C@H](O)C[C@H]1CC[C@@H]1[C@@H]2CC[C@]2(C)[C@@H](c3ccc(=O)oc3)CC[C@]12O` [BUFALIN] showed an activity at 10 min, 10 µM (CYP3A [34]) of 6.81%, an inhibition at 10 min, 10 µM (CYP3A [35]) of 53% and a pIC50 [2] of 6.13. For the same molecule, the pIC50 [3] was 4.94.
